From patent US7960408B2, “Quinolinyl and benzothiazolyl modulators” (Amgen Inc., priority 2000, dated 2011)
pIC50: −log10 of the molar value.

Assays:
PPARγ = target: T1, PPARγ (Homo sapiens, UniProt P37231); experiment: PPARγ ligand binding assay utilizing [3H]-BRL 49653 as the radioligand; settings: concentration required to reduce by 50% the specific binding of [3H]-BRL 49653
T1 construct: made in house
T1 sequence (P37231 1-505): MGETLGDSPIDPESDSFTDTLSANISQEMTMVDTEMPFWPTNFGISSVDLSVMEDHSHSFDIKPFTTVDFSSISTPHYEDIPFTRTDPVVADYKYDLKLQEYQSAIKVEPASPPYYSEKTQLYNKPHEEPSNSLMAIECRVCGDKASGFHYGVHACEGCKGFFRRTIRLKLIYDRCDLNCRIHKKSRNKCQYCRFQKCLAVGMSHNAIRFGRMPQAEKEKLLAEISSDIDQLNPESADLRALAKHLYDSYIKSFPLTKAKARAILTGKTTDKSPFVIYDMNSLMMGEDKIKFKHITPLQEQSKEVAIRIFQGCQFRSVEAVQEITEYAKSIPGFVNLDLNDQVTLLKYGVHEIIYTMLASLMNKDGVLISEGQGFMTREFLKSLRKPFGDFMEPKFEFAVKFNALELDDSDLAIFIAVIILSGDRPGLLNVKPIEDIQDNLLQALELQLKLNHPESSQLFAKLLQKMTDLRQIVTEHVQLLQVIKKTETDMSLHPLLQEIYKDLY
Description: The compounds of the present invention can be evaluated for modulation of the PPARγ receptor using assays such as those described in Jiang, et al., Nature 391:82-86 (1998), Ricote, et al., Nature 391:79-82 (1998) and Lehmann, et al., J. Biol. Chem. 270(12): 12953-12956 (1995). Alternatively, the compounds can be evaluated for their ability to displace radiolabeled BRL 49653 from a PPARγ-GST fusion protein as follows:
PPARγ-GST fusion protein (prepared according to standard procedures), [^3H]—BRL 49653 having 50 Ci/mmol specific activity, Polyfiltronics Unifilter 350 filtration plate and glutathione-Sepharose® beads (from Pharmacia: washed twice with 10× binding buffer in which BSA and DTI can be left out).
Binding buffer (10 mM Tris-HCl, pH 8.0, 50 mM KCI, 10 mM DTT, 0.02% BSA and 0.01% NP-40) is added in 80-μL amounts to the wells of the filtration plate. The test compound is then added in 10 μL of DMSO. The PPARγ-GST fusion protein and radiolabeled BRL compound are premixed in binding buffer containing 10 mM DTT and added in 10-μL amounts to the wells of the plate to provide final concentrations of 1 μg/well of PPARγ-GST fusion protein and 10 nM [^3H]—BRL 49653 compound. The plate is incubated for 15 min. Glutathione-agarose bead is added in 50 μL of binding buffer, and the plate is vigorously shaken for one hour. The plate is washed four times with 200 μL/well of binding buffer (without BSA and DTT). The bottom of the plate is sealed and 200 μL/well of scintillation cocktail is added. The top of the plate is then sealed and the radioactivity is determined.
IC50 values are defined as the concentration of test compounds required to reduce by 50% the specific binding of [^3H]—BRL 49653 and are represented by (+) <30 μM; (++) <10 μM; (+++) <1 μM.

Row | SMILES | pIC50 (PPARγ) | melting point
1 | O=S(=O)(Nc1cc(Cl)c(Sc2cnc3ccccc3c2)c(Cl)c1)c1ccccc1Cl [Compound 3] | > 6.00 | 219.6 °C
2 | O=C(O)c1cccc2cc(Oc3c(Cl)cc(NS(=O)(=O)c4ccc(Cl)cc4Cl)cc3Cl)cnc12 [Compound 48, 3-[2,6-Dichloro-4-(2,4-dichloro-benzenesulfonylamino)-phenoxy]-quinoline-8-carboxylic acid] | > 6.00 | 263 to 266 °C
3 | O=C(O)c1ccc2ncc(Oc3c(Cl)cc(NS(=O)(=O)c4ccc(Cl)cc4Cl)cc3Cl)cc2c1 [Compound 47, 3-[2,6-Dichloro-4-(2,4-dichloro-benzenesulfonylamino)-phenoxy]-quinoline-6-carboxylic acid] | > 6.00 | 228 to 232 °C
4 | COc1ccc2nc(Oc3c(Cl)cc(NS(=O)(=O)c4ccc(C(F)(F)F)cc4Cl)cc3Cl)sc2c1 [Compound 106, 2-Chloro-N-[3,5-dichloro-4-(6-methoxybenzothiazol-2-yloxy)-phenyl]-4-trifluoromethyl-benzenesulfonamide] | > 6.00 | 164 to 165 °C
5 | O=S(=O)(Nc1cc(Cl)c(Oc2nc3ccc(Cl)cc3s2)c(Cl)c1)c1ccc(Cl)cc1Cl [Compound 104, 2,4-Dichloro-N-[3,5-dichloro-4-(6-chloro-benzothiazol-2-yloxy)-phenyl]benzenesulfonamide] | 5.00 to 6.00 | 73 to 75 °C
6 | O=S(=O)(Nc1cc(Cl)c(Oc2nc3ccc(Cl)cc3s2)c(Cl)c1)c1ccc(C(F)(F)F)cc1Cl [Compound 103, 2-Chloro-N-[3,5-dichloro-4-(6-chloro-benzothiazol-2-yloxy)-phenyl]-4-trifluoromethyl-benzenesulfonamide] | > 6.00 | 82 to 84 °C
7 | Cc1ccc2nc(Oc3cc(Cl)cc(NS(=O)(=O)c4ccc(C(F)(F)F)cc4Cl)c3)sc2c1 [Compound 299, 2-Chloro-N-[3-chloro-5-(6-methyl-benzothiazol-2-yloxy)-phenyl]-4-trifluoromethyl-benzenesulfonamide] | > 6.00 | 
8 | O=S(=O)(Nc1cc(Oc2nc3cc(Cl)ccc3s2)cc(Oc2nc3cc(Cl)ccc3s2)c1)c1ccc(C(F)(F)F)cc1Cl [Compound 322, N-[3,5-Bis-(5-chloro-benzothiazol-2-yloxy)-phenyl]-2-chloro-4-trifluoromethyl-benzenesulfonamide] | 5.00 to 6.00 | 
9 | O=S(=O)(Nc1cc(Cl)cc(Cc2nc3cc(Cl)ccc3s2)c1)c1ccc(C(F)(F)F)cc1Cl [Compound 331, 2-Chloro-N-[3-chloro-5-(5-chloro-benzothiazol-2-ylmethyl)-phenyl]-4-trifluoromethyl-benzenesulfonamide] | > 6.00 | 
10 | COC(=O)c1ccc2ncc(Oc3c(Cl)cc(NS(=O)(=O)c4ccc(Cl)cc4Cl)cc3Cl)cc2c1 [Compound 45, 3-[2,6-Dichloro-4-(2,4-dichloro-benzenesulfonylamino)-phenoxy]-quinoline-6-carboxylic acid methyl ester] | > 6.00 | 
11 | Cc1cccc2sc(Oc3cc(Cl)cc(NS(=O)(=O)c4ccc(C(F)(F)F)cc4Cl)c3)nc12 [Compound 293, 2-Chloro-N-[3-chloro-5-(4-methyl-benzothiazol-2-yloxy)-phenyl]-4-trifluoromethyl-benzenesulfonamide] | > 6.00 | 
12 | COc1cccc2sc(Oc3c(Cl)cc(NS(=O)(=O)c4ccc(Cl)cc4Cl)cc3Cl)nc12 [Compound 428, 2,4-Dichloro-N-[3,5-dichloro-4-(4-methoxy-benzothiazol-2-yloxy)-phenyl]-benzenesulfonamide] | > 6.00 | 
13 | CCOC(=O)c1ccc2nc(Oc3cc(Cl)cc(NS(=O)(=O)c4ccc(C(F)(F)F)cc4Cl)c3)sc2c1 [Compound 310, 2-[3-Chloro-5-(2-chloro-4-trifluoromethyl-benzenesulfonylamino)-phenoxy]-benzothiazole-6-carboxylic acid ethyl ester] | > 6.00 | 
14 | Cc1cc(S(=O)(=O)Nc2cc(Cl)cc(Oc3nc4cc(Cl)ccc4s3)c2)c(Cl)cc1Cl [Compound 285, 2,4-Dichloro-N-[3-chloro-5-(5-chloro-benzothiazol-2-yloxy)-phenyl]-5-methyl-benzenesulfonamide] | > 6.00 | 
15 | O=S(=O)(Nc1ccc(Oc2nc3c(Cl)cccc3s2)c(Cl)c1)c1ccc(C(F)(F)F)cc1Cl [Compound 503, 2-Chloro-N-[3-chloro-4-(4-chloro-benzothiazol-2-oxy)-phenyl]-4-trifluoromethylbenzenesulfonamide] | 4.52 to 5.00 | 
16 | CCOC(=O)c1ccc2nc(Oc3cc(Cl)cc(NS(=O)(=O)c4ccc(C(F)(F)F)cc4Cl)c3)sc2c1 [Compound 311, 2-[3-Chloro-5-(2-chloro-4-trifluoromethyl-benzenesulfonylamino)-phenoxy]-benzothiazole-6-carboxylic acid ethyl ester] | > 6.00 | 
17 | COc1ccc2nc(Oc3cc(Cl)cc(NS(=O)(=O)c4cc(C)c(Cl)cc4Cl)c3)sc2c1 [Compound 309, 2,4-Dichloro-N-[3-chloro-5-(6-methoxy-benzothiazol-2-yloxy)-phenyl]-5-methyl-benzenesulfonamide] | > 6.00 | 
18 | O=S(=O)(Nc1cc(Cl)c(Cc2cc3ccccc3cn2)c(Cl)c1)c1ccc(C(F)(F)F)cc1Cl [Compound 237, 2-Chloro-N-(3,5-dichloro-4-isoquinolin-3-ylmethyl-phenyl)-4-trifluoromethyl-benzenesulfonamide] | > 6.00 | 
19 | O=S(=O)(Nc1cc(Cl)cc(Oc2nc3ccc(F)cc3s2)c1)c1ccc(C(F)(F)F)cc1Cl [Compound 304, 2-Chloro-N-[3-chloro-5-(6-fluoro-benzothiazol-2-yloxy)-phenyl]-4-trifluoromethyl-benzenesulfonamide] | > 6.00 | 
20 | O=S(=O)(Nc1cc(Oc2nc3cc(Cl)ccc3s2)cc(Oc2nc3cc(Cl)ccc3s2)c1)c1ccc(Cl)cc1Cl [Compound 323, N-[3,5-Bis-(5-chloro-benzothiazol-2-yloxy)-phenyl]-2,4-dichloro-benzenesulfonamide] | 5.00 to 6.00 | 
21 | O=S(=O)(Nc1cc(Cl)cc(Oc2nc3c(Cl)cccc3s2)c1)c1ccc(Cl)cc1Cl [Compound 291, 2,4-Dichloro-N-[3-chloro-5-(4-chloro-benzothiazol-2-yloxy)-phenyl]-benzenesulfonamide] | 4.52 to 5.00 | 
22 | O=S(=O)(Nc1cc(Cl)c([S+]([O-])c2cnc3ccccc3c2)c(Cl)c1)c1ccc(Cl)cc1Cl (stereo not drawn) [Compound 5.2] | > 6.00 | 
23 | CC(C)(C)c1ccc(S(=O)(=O)Nc2cc(Cl)cc(Oc3nc4cc(Cl)ccc4s3)c2)cc1 [Compound 501, 4-tert-Butyl-N-[3-chloro-5-(5-chloro-benzothiazole-2-yloxy)]-benzenesulfonamide] | < 4.52 | 
24 | Cc1cc(S(=O)(=O)Nc2cc(Oc3nc4cc(Cl)ccc4s3)cc(Oc3nc4cc(Cl)ccc4s3)c2)c(Cl)cc1Cl [Compound 324, N-[3,5-Bis-(5-chloro-benzothiazol-2-yloxy)-phenyl]-2,4-dichloro-5-methyl-benzenesulfonamide] | > 6.00 | 
